Entries after “also recorded” stand apart in the source; their conditions may differ.
Columns and labels:
[1] = tested on: wild-type HCT116 colon cancer cells; experiment: Anti-proliferative IC50 assay (SRB), wild-type HCT116; format: cell-based, human; conditions: 4 hour exposure, 5 days growth; read-out: HCT116-WT IC50
Source text: (§1) The cellular cytotoxicity of compounds of the invention resulting from AKR1C3-dependent metabolism of the compounds can readily be observed in anti-proliferative IC50 testing in isogenic cell lines that have been engineered to over-express human AKR1C3, relative to their wild-type counterparts that have been selected for their comparatively low levels of endogenous AKR1C3 expression (by Western blot analysis). The direct role of AKR1C3 in metabolism and cytotoxicity of the compounds is further supported for selected examples by repeat anti-proliferative experiments in the presence of a potent and selective small molecule inhibitor of AKR1C3, SN34037 (Flanagan et al., Bioorganic & Medicinal Chemistry (2014), 22(3), 967-977).
(§2) Four hundred cells were seeded in a volume of 100 μL in each well of a 96-well plate. The cells were left in a humidified incubator (37° C., 5% CO2) for 2 hours in order to enable attachment to the surface of the wells prior to compound addition. All compounds were prepared as stocks in DMSO and stored at −80° C. Frozen stocks of compounds were thawed immediately prior to addition to cells. Working solutions of each compound were made in α-MEM+5% FBS (v/v) at 3 times the required final concentration for the top well. The final concentration of DMSO in the α-MEM solution was ensured to not exceed 1% of the total volume. 50 μL of the working solution was added to the top wells (in duplicates) and gently mixed. The solubility of some compounds precluded the working solution in α-MEM to be 3 times the desired top well concentration. […] A 3-fold serial dilution was carried out along the plate starting from the top well. The first column of wells on the plate served as blanks (containing α-MEM+FBS) and the second column served as control wells (containing cells with no compound added). Following compound addition, the plates were incubated for 4 hours in a humidified incubator (37° C., 5% CO2).
(§3) Following the 4 hour compound exposure, the 96-well plates were washed three times by aspirating media with an Immuno Washer (Nunc) and each well replaced with 150 μL of α-MEM+5% (v/v) FBS+1% (v/v) P/S. The plates were left in a humidified incubator (37° C., 5% CO2) for 5 days to enable cell growth. The cells in 96-well plates were fixed 5 days after compound exposure by adding 50 μL of a 40% (w/v) trichloroacetic acid (TCA) solution so as to obtain a final TCA concentration of 10% in each well. The plates were left in the refrigerator (4° C.) for 1 hour and subsequently rinsed 3 times in tap water. Any excess water was left to drain and the cells were stained with 50 μL of 0.4% (w/v) sulforhodamine B (SRB). The plates with the SRB stain were left in the dark for 30 minutes. Excess stain was removed from the wells by rinsing the plates 4 times in water containing 1% (v/v) acetic acid. The stain was solubilised by adding 100 μL of 10 mM unbuffered Tris (pH 10.5) to each well and the plates were left in a shaker in a dark environment at room temperature for at least 1 hour. The absorbance values of the wells were determined by an ELx 808 Absorbance Microplate Reader (Bio-Tek Instruments, Winooski, Vt., USA), with the wavelength of the measurement filter set at 490 nm and a reference filter set at 450 nm. The absorbance of the reference filter was subtracted from the measurement filter to obtain a final absorbance of λ490-450 nm. The absorbance data was analysed and IC50 values determined by the KC4 microplate data analysis software (KC4™ V3.4, Bio-Tek).
(§4) Anti-proliferative IC50 assays were repeated as described above including the addition of 3 μM SN34037, a selective and potent small molecule inhibitor of AKR1C3.

[2] = tested on: HCT116 colon cancer cells engineered to over-express AKR1C3; experiment: Anti-proliferative IC50 assay (SRB), HCT116 over-expressing AKR1C3; format: cell-based, human
Source text: as §1, §2, §3, §4

AKR1C3 mixed MCLs = conditions: Silva, MSc Thesis; cited from earlier work
[3] = tested on: mixed MCLs that only express 1% of the activating reductase E. coli NfsB; conditions: 1% NfsB-expressing cells; Singleton et al., 2007; cited from earlier work
[4] = Solubility by HPLC in water and lactate buffer; format: physicochemical; conditions: water, room temperature; read-out: Solubility, Water, RT
Protocol: (§5) The solubility and stability of compound 641 was studied by HPLC in lactate buffer (pH 4) and water as the free base and the mesylate salt (641.Ms) at 0° C. and room temperature (RT). […] However, this was improved considerably by formulation as the mesylate salt, producing a solubility of greater than 100 mmol/L in lactate buffer and greater than 70 mmol/L in water. […] This stability was improved considerably by reducing the temperature of the solution to 0° C.

[5] = Stability in solution by HPLC in water and lactate buffer; format: physicochemical
Protocol: as §5

[6] = tested on: H460 lung cancer xenografts; experiment: Tumour growth delay, H460 xenografts; format: in vivo, NIH-III mice
Source text: (§6) Specific pathogen-free female homozygous nude NIH-III (NIH-Lyst^bg Foxn1^nu Btk^xid) mice were bred by the Vernon Jansen Unit (shared vivarium, University of Auckland). Animals were housed in Techniplast microisolator cages and provided with a standard twelve hour day-night light schedule. Animals received standard rodent diet (Harlan Teklad diet 2018i) and water ad libitum. All animal studies were approved by the University of Auckland Animal Ethics Committee.
(§7) Animals weighed 18-25 g at the time of tumour inoculation. Tumours were grown subcutaneously on the right flank of mice by inoculating cells grown in tissue culture (1×10^7 cells in 100 uL serum free α-MEM). Tumour sizes were monitored three times weekly using electronic callipers and treatments were initiated once tumour diameter reached ≥7 mm.
(§8) Tumour bearing mice were randomised into the appropriate treatment groups and tumour size and body weight recorded. Test compounds were formulated on the day of the experiment and kept in foil-wrapped tubes out of direct fluorescent light. If recruitment of animals occurred over multiple days, the drug stocks were aliquoted into tubes and frozen once at −80° C. until required. Mice were treated with a single (or q4dx3 or q4dx4 or q4dx6) dose of a compound of the invention by intraperitoneal injection and thereafter tumour size and body weight was monitored every second day. Tumour volume was calculated as […] (l×w×w)/6, where l is the major axis and w is the perpendicular minor axis. Animals were culled when they had reached the appropriate survival endpoint or when body weight loss exceeded 20% of the pre-treatment value.

[7] = tested on: PLC/PRF/5 hepatocellular carcinoma xenografts; experiment: Tumour growth delay, PLC/PRF/5 xenografts; format: in vivo, NIH-III mice; conditions: q4dx4 intraperitoneal, 114 mg/kg
Source text: as §6, §7
as §8, with “If recruitment of animals occurred over multiple days, the drug stocks were aliquoted into tubes and frozen once at −80° C. until required.” left out, “Animals were culled when they had reached the appropriate survival endpoint or when body weight loss exceeded 20% of the pre-treatment value.” left out

[8] = tested on: SW780 bladder carcinoma xenografts; experiment: Tumour growth delay, SW780 xenografts; format: in vivo, NIH-III mice; conditions: q4dx6 intraperitoneal, 50 mg/kg
Source text: as §6, §7
as §8, with “If recruitment of animals occurred over multiple days, the drug stocks were aliquoted into tubes and frozen once at −80° C. until required.” left out, “Animals were culled when they had reached the appropriate survival endpoint or when body weight loss exceeded 20% of the pre-treatment value.” left out

[9] = tested on: SNU-398^WT (wild type) hepatocellular carcinoma xenografts; experiment: Tumour growth delay, SNU-398 wild type xenografts; format: in vivo, NIH-III mice; conditions: q4dx4 intraperitoneal, 50 mg/kg; negligible AKR1C3 expression; FIG. 7
Source text: as §6, §7
as §8, with “If recruitment of animals occurred over multiple days, the drug stocks were aliquoted into tubes and frozen once at −80° C. until required.” left out, “Animals were culled when they had reached the appropriate survival endpoint or when body weight loss exceeded 20% of the pre-treatment value.” left out

[10] = tested on: SNU-398^AKR1C3 (AKR1C3 over-expressing) hepatocellular carcinoma xenografts; experiment: Tumour growth delay, SNU-398 AKR1C3 over-expressing xenografts; format: in vivo, NIH-III mice; conditions: q4dx4 intraperitoneal, 50 mg/kg
Source text: as §6, §7
as §8, with “If recruitment of animals occurred over multiple days, the drug stocks were aliquoted into tubes and frozen once at −80° C. until required.” left out, “Animals were culled when they had reached the appropriate survival endpoint or when body weight loss exceeded 20% of the pre-treatment value.” left out

## O=C(NCCO)c1cc([N+](=O)[O-])cc([N+](=O)[O-])c1N(CCBr)CCBr [SN27686, reference compound]
[1]
  IC50: 42.6 µM
[2]; 4 hour exposure, 5 days growth, read-out: HCT116-AKR1C3 IC50
  IC50: 1.46 µM
[2]; HCT116-WT vs HCT116-AKR1C3
  IC50 Ratio WT:AKR1C3: 29
AKR1C3 mixed MCLs
  BEE reported in AKR1C3 mixed MCLs: 57.6%
[3]
  bystander effect: 48%

## CS(=O)(=O)O.CS(=O)(=O)OCCN(CCOS(C)(=O)=O)c1ccc([N+](=O)[O-])cc1S(=O)(=O)N1CCNCC1
other
  melting point: 147 to 149 °C

## CN1CCN(S(=O)(=O)c2cc([N+](=O)[O-])ccc2N(CCOS(C)(=O)=O)CCOS(C)(=O)=O)CC1 [Compound 641.Ms, 4-((2-(bis(2-((methylsulfonyl)oxy)ethyl)amino)-5-nitrophenyl)sulfonyl)-1-methylpiperazin-1-ium methanesulfonate]
[4]
  solubility: > 70 mM
[5]; lactate buffer (pH 4), 0° C.
  Stability (% Parent after 24 hours), Lactate Buffer, 0° C.: 91.7%
[5]; lactate buffer (pH 4), room temperature, methanesulfonate
  Stability (% Parent after 24 hours), Lactate Buffer, RT: 51.9%
[5]; water, room temperature
  Stability (% Parent after 24 hours), Water, RT: 53.8%
[6]; q4dx4 intraperitoneal, 10, 25, 50, 100 and 150 mg/kg, FIG. 4
  anti-tumour efficacy (mean tumour volume): significant anti-tumour efficacy
[6]; q4dx4 intraperitoneal, 10-150 mg/kg, all dose cohorts
  mean percentage change in body weight: ≥ −10%
[6]; q4dx4 intraperitoneal, 10-150 mg/kg, methanesulfonate
  tolerability: well-tolerated; also recorded: well tolerated
[6]; single dose intraperitoneal, 237, 422, 562, 750 and 1000 μmol/kg, FIG. 3
  anti-tumour efficacy (mean tumour volume): significant anti-tumour efficacy
[6]; single dose intraperitoneal, 237-1000 μmol/kg
  tolerability: well-tolerated
[7]
  tolerability of schedule: well-tolerated
[7]; FIG. 5
  anti-tumour activity (mean tumour volume): significant anti-tumour activity
[8]
  tolerability of schedule: well-tolerated
[8]; FIG. 6
  anti-tumour activity (mean tumour volume): significant anti-tumour activity
[9]
  anti-tumour activity (mean tumour volume): inactive
[10]; FIG. 7
  anti-tumour activity (mean tumour volume): significant anti-tumour activity
[10]; mice bearing SNU-398^WT or SNU-398^AKR1C3 xenografts
  tolerability of schedule: well-tolerated
